Measurements published in US20260258039A1, “AROMATIC COMPOUND, METHOD FOR PREPARING SAME, AND USE THEREOF IN PREPARATION OF ESTROGEN RECEPTOR DEGRADER” (Hinova Pharmaceuticals Inc., priority 2022, published 2026).

Molecular target: T1, ER (Homo sapiens, UniProt P03372)
T1 construct: T47D breast cancer cells were subcultured in cell culture medium; endogenous in cells; host or cells: T47D breast cancer cells
T1 sequence (P03372 1-595): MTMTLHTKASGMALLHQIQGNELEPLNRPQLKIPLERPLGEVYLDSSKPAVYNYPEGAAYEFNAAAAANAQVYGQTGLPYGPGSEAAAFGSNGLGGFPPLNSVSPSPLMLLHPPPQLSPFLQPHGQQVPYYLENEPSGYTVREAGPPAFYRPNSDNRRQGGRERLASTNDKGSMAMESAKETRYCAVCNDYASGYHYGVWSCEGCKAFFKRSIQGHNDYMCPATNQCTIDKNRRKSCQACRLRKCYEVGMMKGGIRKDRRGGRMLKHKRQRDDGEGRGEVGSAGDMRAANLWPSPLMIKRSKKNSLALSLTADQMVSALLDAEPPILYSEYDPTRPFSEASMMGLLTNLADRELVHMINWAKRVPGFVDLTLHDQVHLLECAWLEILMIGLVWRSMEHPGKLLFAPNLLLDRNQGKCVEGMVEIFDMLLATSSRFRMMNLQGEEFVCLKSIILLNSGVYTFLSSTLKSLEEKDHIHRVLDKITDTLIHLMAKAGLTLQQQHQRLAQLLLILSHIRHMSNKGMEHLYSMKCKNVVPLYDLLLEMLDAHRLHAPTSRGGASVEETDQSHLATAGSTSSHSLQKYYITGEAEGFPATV
Assay: Degradation activities on ER (ELISA) in T47D breast cancer cells
Assay type: cell-based
Details: T47D cells, 24 h, ELISA; for DC50: concentration required to degrade 50% of the target protein; for Dmax: maximum percentage of target protein degraded, read-out: Dmax
Method: T47D breast cancer cells were subcultured in cell culture medium, and then the cells in good growth condition were seeded into 96-well plates at 80 µL/well, with 2.5×10^4 cells per well. The cells were incubated in a 37° C., 5% CO2 incubator for 3 days. The drug was prepared into a 10 mM stock solution with dimethyl sulfoxide (DMSO). Prior to use, the stock solution was diluted with cell culture medium to obtain six final concentrations (100 nM, 25 nM, 6.25 nM, 1.56 nM, 0.39 nM, and […]), and gently mixed. Additionally, negative control wells (only containing culture medium) and positive control wells (only containing cells and DMSO) were included. After the cells were incubated in the incubator for 24 h, the cells were rinsed once with ice-cold 1×PBS. […] The plate was sealed with plastic film, and incubated in a 37° C. incubator for 2 h. The film was removed. 200 μL of 1× washing buffer was added to each well, and then the plate was shaken for 5 min. The washing buffer was discarded, and the plate was pat-dried. The plate was washed four times. 100 μL of freshly prepared detection antibody (green) was added to each well of the ELISA plate. The plate was sealed with plastic film, and then incubated in a 37° C. incubator for 1 h. The film was removed, and the detection antibody was discarded. The plate was pat-dried. 200 μL of 1× washing buffer was added to each well, and then the plate was shaken for 5 min. The washing buffer was discarded, and the plate was pat-dried. The plate was washed four times. 100 μL of freshly prepared HRP-labeled secondary antibody (red) was added to each well of the ELISA plate. The plate was sealed with plastic film, and incubated in a 37° C. incubator for 30 min. The film was removed, the secondary antibody was discarded, and the plate was pat-dried, followed by adding 200 μL of 1× washing buffer to each well. The plate was shaken for 5 min, and the washing buffer was discarded before pat-drying the plate. The plate was washed four times. 100 μl of TMB substrate was added to each well of the ELISA plate, followed by incubating in a 37° C. incubator for 5 min. 100 μL of STOP solution was added to each well of the ELISA plate, and the plate was gently shaken for a few seconds. The bottom of each well was wiped with lint-free cloth. Within 30 min after adding the STOP solution, the absorbance was read at 450 nm. […] The data were analyzed using the Dose-response equation in GraphPad Prism8 software to obtain the DC50 and Dmax values, and both of them are important indicators for measuring the degradation activities of compounds on target proteins. […] The Dmax value represents the maximum percentage of target protein that can be degraded by the compound.

DC50 | Dmax | Compound
< 10 nM | > 75% | O=C1CCC(N2Cc3cc(N4CCC(N5CC6(CCN(c7ccc([C@@H]8c9ccc(O)cc9CC[C@@H]8c8ccccc8F)cc7)CC6)C5)CC4)ccc3C2=O)C(=O)N1 (stereo partly drawn) [Example 19, 3-(5-(4-(7-(4-(cis-2-(2-fluorophenyl)-6-hydroxyl-1,2,3,4-tetrahydronaphthalen-1-yl)phenyl)-2,7-diazaspiro[3.5]nonane-2-yl)piperidin-1-yl)-1-oxoisoinodolin-2-yl)piperidin-2,6-dione]
> 100 nM | < 50% | O=C1CCC(N2Cc3cc(N4CC5(CCN(CC6CCN(c7ccc([C@H]8c9ccc(O)cc9OC[C@H]8c8cccc(F)c8F)cc7F)CC6)CC5)C4)ccc3C2=O)C(=O)N1 (stereo partly drawn) [Example 24, 3-(5-(7-((1-(4-((3R,4S)-3-(2,3-difluorophenyl)-7-hydroxychroman-4-yl)-2-fluorophenyl)piperidin-4-yl)methyl)-2,7-diazaspiro[3.5]nonane-2-yl)-1-oxoisoinodolin-2-yl)piperidin-2,6-dione]
< 10 nM | > 75% | O=C1CCC(N2Cc3cc(N4CCC(N5CC6(CCN(c7ccc([C@@H]8c9ccc(O)cc9CC[C@@H]8c8ccccc8)cc7F)CC6)C5)CC4)ccc3C2=O)C(=O)N1 (stereo partly drawn) [Example 69, 3-(5-(4-(7-(2-fluoro-4-((1,2-cis)-6-hydroxyl-2-phenyl-1,2,3,4-tetrahydronaphthalen-1-yl)phenyl)-2,7-diazaspiro[3.5]nonane-2-yl)piperidin-1-yl)-1-oxoisoinodolin-2-yl)pyridine-2,6-dione]
< 10 nM | > 75% | O=C1CCC(N2Cc3cc(N4CCC(N5CC6(CCN(c7ccc([C@@H]8c9ccc(O)cc9OC[C@@H]8c8ccccc8F)cc7F)CC6)C5)CC4)ccc3C2=O)C(=O)N1 (stereo partly drawn) [Example 68, 3-(5-(4-(7-(2-fluoro-4-((3,4-cis)-3-(2-fluorophenyl)-7-hydroxyl-chroman-4-yl)phenyl)-2,7-diazaspiro[3.5]nonane-2-yl)piperidin-1-yl)-1-oxoisoinodolin-2-yl)pyridine-2,6-dione]
< 10 nM | > 75% | O=C1CCC(N2Cc3cc(N4CCC(N5CC6(CCN(c7ccc([C@@H]8c9ccc(O)cc9CC[C@@H]8c8ccccc8F)cc7F)CC6)C5)CC4)ccc3C2=O)C(=O)N1 (stereo partly drawn) [Example 67, 3-(5-(4-(7-(2-fluoro-4-((1,2-cis)-2-(2-fluorophenyl)-6-hydroxyl-1,2,3,4-tetrahydronaphthalen-1-yl)phenyl)-2,7-diazaspiro[3.5]nonane-2-yl)piperidin-1-yl)-1-oxoisoinodolin-2-yl)pyridine-2,6-dione]
> 100 nM | < 50% | O=C1CC[C@@H](N2Cc3cc(N4CC5(CCN(CC6CCN(c7ccc([C@@H]8c9ccc(O)cc9OC[C@@H]8c8ccccc8F)cc7)CC6)CC5)C4)ccc3C2=O)C(=O)N1 [Example 90, (R)-3-(5-(7-((1-(4-((3S, 4R)-3-(2-fluorophenyl)-7-hydroxychroman-4-yl)phenyl)piperidin-4-yl)methyl)-2,7-diazaspiro[3.5]nonane-2-yl)-1-oxoisoinodolin-2-yl)piperidin-2,6-dione]
< 10 nM | > 75% | O=C1CC[C@H](N2Cc3cc(N4CC5(CCN(CC6CCN(c7ccc([C@@H]8c9ccc(O)cc9OC[C@@H]8c8ccccc8F)cc7)CC6)CC5)C4)ccc3C2=O)C(=O)N1 [Example 91, (S)-3-(5-(7-((1-(4-((3S, 4R)-3-(2-fluorophenyl)-7-hydroxychroman-4-yl)phenyl)piperidin-4-yl)methyl)-2,7-diazaspiro[3.5]nonane-2-yl)-1-oxoisoinodolin-2-yl)piperidin-2,6-dione]
< 10 nM | > 75% | O=C1CCC(N2Cc3cc(N4CCC(N5CC6(CCN(c7ccc([C@@H]8c9ccc(O)cc9OC[C@@H]8c8ccccc8)cc7)CC6)C5)CC4)ccc3C2=O)C(=O)N1 (stereo partly drawn) [Example 13]
> 100 nM | < 50% | O=C1CCC(N2Cc3cc(N4CCC(N5CC6(CCN(c7ccc([C@H]8c9ccc(O)cc9OC[C@H]8c8ccccc8F)cc7)CC6)C5)CC4)ccc3C2=O)C(=O)N1 (stereo partly drawn) [Example 15]

The next lines start with the compound.

Compound | DC50 | Dmax
O=C1CCC(N2Cc3cc(N4CC5(CCN(CC6CCN(c7c(F)cc(C8=C(c9ccccc9F)COc9cc(OCc%10ccccc%10)ccc98)cc7F)CC6)CC5)C4)ccc3C2=O)C(=O)N1 (stereo not drawn) [Example 52] | > 100 nM | < 50%
O=C1CCC(N2Cc3cc(N4CC5(CCN(CC6CCN(c7ccc([C@H]8c9ccc(O)cc9OC[C@H]8c8c(F)cccc8F)cc7)CC6)CC5)C4)ccc3C2=O)C(=O)N1 (stereo partly drawn) [Example 72, 3-(5-(7-((1-(4-((3R,4S)-3-(2,6-difluorophenyl)-7-hydroxychroman-4-yl)phenyl)piperidin-4-yl)methyl)-2,7-diazaspiro[3.5]nonane-2-yl)-1-oxoisoindol-2-yl)piperidin-2,6-dione] |  | < 50%
Cc1ccccc1[C@H]1COc2cc(O)ccc2[C@H]1c1ccc(N2CCC(CN3CCC4(CC3)CN(c3ccc5c(c3)CN(C3CCC(=O)NC3=O)C5=O)C4)CC2)cc1 (stereo partly drawn) [Example 35, 3-(5-(7-((1-(4-(cis-7-hydroxyl-3-(o-methylphenyl)chroman-4-yl)phenyl)piperidin-4-yl)methyl)-2,7-diazaspiro[3.5]nonane-2-yl)-1-oxoisoinodolin-2-yl)piperidin-2,6-dione] | 10 to 50 nM | 50 to 75%
O=C1CCC(N2Cc3cc(N4CC5(CCN(CC6CN(c7ccc(C8c9ccc(O)cc9OC[C@@H]8c8ccccc8F)cc7)C6)CC5)C4)ccc3C2=O)C(=O)N1 (stereo partly drawn) [Example 5, 3-(5-(7-((1-(4-(cis-3-(2-fluorophenyl)-7-hydroxypyran-4-yl)phenyl)azetidin-3-yl)methyl)-2,7-diazaspiro[3.5]nonane-2-yl)-1-oxoisoinodolin-2-yl)piperidin-2,6-dione] | > 100 nM | 50 to 75%
O=C1CCC(N2Cc3cc(N4CCC5(CCN(C6CCN(c7ccc([C@@H]8c9ccc(O)cc9CC[C@@H]8c8ccccc8)cc7)CC6)C5)C4)ccc3C2=O)C(=O)N1 (stereo partly drawn) [Example 66, 3-(5-(7-(1-(4-(6-hydroxyl-2-phenyl-1,2,3,4-tetrahydronaphthalen-1-yl)phenyl)piperidin-4-yl)-2,7-diazaspiro[4.4]nonane-2-yl)-1-oxoisoinodolin-2-yl)piperidin-2,6-dione] | > 100 nM | < 50%
O=C1CCC(N2C(=O)c3ccc(N4CC5(CN(CC6CCN(c7ccc([C@@H]8c9ccc(O)cc9CC[C@@H]8c8ccccc8)cc7)CC6)C5)C4)cc3C2=O)C(=O)N1 (stereo partly drawn) [Example 3, 2-(2,6-dioxopiperidin-3-yl)-5-(6-((1-(4-((1R,2S)-6-hydroxyl-2-phenyl-1,2,3,4-tetrahydronaphthalen-1-yl)phenyl)piperidin-4-yl)methyl)-2,6-diazaspiro[3.3]heptan-2-yl)isoinodolin-1,3-dione] | > 100 nM | 
O=C1CCC(N2Cc3cc(N4CC5(CCN(CC6CCN(c7c(F)cc([C@H]8c9ccc(O)cc9OC[C@H]8c8ccccc8F)cc7F)CC6)CC5)C4)ccc3C2=O)C(=O)N1 (stereo partly drawn) [Example 38, 3-(5-(7-((1-(2,6-difluoro-4-((3R,4S)-3-(2-fluorophenyl)-7-hydroxychroman-4-yl)phenyl)piperidin-4-yl)methyl)-2,7-diazaspiro[3.5]nonane-2-yl)-1-oxoisoindol-2-yl)piperidin-2,6-dione] | > 100 nM | < 50%
